Source: patent US20230181905A1, “Systems, Devices, and Methods for Enhancing the Neuroprotective Effects of Non-Invasive Gamma Stimulation with Pharmacological Agents” (Massachusetts Institute of Technology, priority 2021, published 2023)

How the values were obtained:
Assay type in all cases: in vivo, mouse
C1q = C1q signal intensity immunohistochemistry; conditions: 5×FAD mice
Source text: Elevated expression of C1q is observed in both human AD and mouse models of AD, and further such an elevated expression is closely associated with the elimination of synapses in microglia. In addition, MHC2 expression is increased in the AD brain. Therefore, to test whether these treatments, that improved synaptic density, had any effect on these neuroinflammatory markers, C1q (Abcam, #ab182451) and MHC2 (EMD Millipore, #MABF33) levels (FIGS. 5A-5D) were examined.
C1q and MHC2 signal intensity: Using an LSM 710 with a 20× or 40× objectives, z stacks of the entire slice thickness […] (40 images from each field) were acquired. The signal intensity was measured.
C1q and MHC2 signal intensity: Using an LSM 710 with a 20× or 40× objectives, z stacks of the entire slice thickness […] (40 images from each field) were acquired. The signal intensity was measured in Imaris.

IBA1+ microglia = IBA1+ microglia density, area and volume by immunohistochemistry
Protocol: Experiments were performed to reduce microglia from 10-month-old 5×FAD mice, transgenic mice that overexpress human APP and PSEN1 genes harboring 5 AD-associated mutations, prior to GENUS treatment. […] Following 20 days of administration of Plx3397 chow, untreated- and Plx3397-treated 5×FAD mice (which continued Plx3397 administration) were subjected to 30 days of daily GENUS (FIG. 1A). Following completion of these treatments, microglial density in the visual cortex was compared between 1) untreated (No Stim), 2) Plx3397 treated, 3) GENUS treated and 4) Plx3397+GENUS treated 5×FAD mice (FIG. 1B).
Whether the neuroprotective effect is broader and can be replicated in other mouse models of neurodegeneration was evaluated. The CK-p25 mice, transgenic mice that overexpress CDK5 activator p25 in excitatory neurons, were subjected to these treatments. CK-p25 mice, which was raised in doxycycline containing food, was given either normal rodent chow (containing no doxycycline) or Plx3397 chow, and the mice simultaneously underwent no sensory stimulation or GENUS (FIG. 7A). After 42 days of treatment, neuroprotective factors were evaluated. Plx3397, GENUS and Plx3397+GENUS treatments reduced microglia in the visual cortex in CK-p25 mice (ANOVA F (3,35)=40.93, P<0.0001) (FIGS. 7B-7D), consistent with the results observed in 5×FAD mice and recent findings.
Microglia: Iba1 immunoreactive cells were considered microglia. Using an LSM 710 or LSM 880 with a 10× (for Iba1+ cell counts) or 40× (for morphological analysis) objective z stacks of the entire slice thickness […] with […] step size were acquired. Imaris was used for 3D rendering of images to quantify the total volume of microglia.
(§1) To study how CSF1R-sensitive microglia impact neural activity in the context of AD, an amyloidosis mouse model, the 5×FAD mice—which is a most commonly used mouse model for AD, was subject to a diet containing CSF1R inhibitor Plx3397 for 50 days (FIG. 21A). The CSF1R inhibitor Plx3397 (600 ppm) was employed, which was previously shown to effectively reduce microglia in vivo. Control mice were age-matched 5×FAD litters that received a regular diet. Electrophysiological recordings were performed using linear probes. Post-recording, the recording site in the visual cortex was verified by histology (FIG. 21), and microglia reduction was evaluated by assessing IBA1+ cell numbers.
How does regulating gamma oscillations affect synaptic and neural circuit function in Plx3397 treated 5×FAD mice? Specifically, it was asked what gene expression patterns are after the Plx3397 treatment and how gamma entrainment impacts such a signature. To address these questions, an unbiased RNA sequencing approach was utilized. 5×FAD mice were treated, via oral delivery in mouse chow, with the Plx3397. Following 20 days of administration of Plx3397 chow, untreated- and Plx3397-treated 5×FAD mice (which continued Plx3397 administration) were subjected to 30 days of daily GENUS (FIG. 24A). Following completion of the treatments, microglial density was quantified between 1) untreated (control), 2) Plx3397, 3) GENUS and 4) Plx3397+GENUS treated 5×FAD mice (FIGS. 24A-24D). […] Also observed was a reduction in IBA1 signal in the GENUS group (84.0±6.42 & 9.17±0.85) (FIGS. 24C-24D), which is consistent with previous observation in CK-p25 mice. After the treatments, the visual cortex was dissected, and single nucleus RNA-sequencing was performed.
Microglia: Iba1 immunoreactive cells were considered microglia. Using an LSM 710 or LSM 880 with a 10× (for Iba1+ cell counts) or 40× (for morphological analysis) objective z stacks of the entire slice thickness […] with […] step size were acquired. Imaris was used for 3D rendering of images to quantify the total volume of microglia. MAC2+ cells were counted manually using Image J.

GFAP+ astrocytes = assay: GFAP+ astrocyte immunohistochemistry; conditions: 5×FAD mice; Plx3397 diet 50 days vs control
Protocol: as §1
Antibodies: IBA1 (Synaptic Systems, Cat #234 004, dilution-1:500; Wako Chemicals, Cat #019-19741, dilution-1:500), GFAP (Thermo Fisher Scientific, Cat #130300, dilution-1:500), MEF2C (Cell Signaling Technology, Cat #5030T), MAC2 (Cedarlane Labs, Cat #CL8942AP, dilution-1:500), vGAT (Synaptic Systems, Cat #131 013, dilution-1:500), vGLUT (Synaptic Systems, Cat #1135 302, dilution-1:500), NeuN (Synaptic Systems, Cat #266 004, dilution-1:1000), MHC2 (EMD Millipore, Cat #MABF33, dilution-1:500), C1q (Abcam, Cat #ab182451, dilution-1:500), synaptophysin (Sigma, Cat #S5768). […]

[1] = 5×FAD mice, visual cortex, Plx3397 chow 50 days, GENUS last 30 days

Question: Which C1q levels (C1q; hippocampus, chronic Plx3397 vs control) does the source give for `FC(F)(F)c1ccc(CNc2ccc(Cc3c[nH]c4ncc(Cl)cc34)cn2)cn1` [Plx3397, Pexidartinib] here?
Answer: The C1q levels was “reduced”.

Question: What about the C1q (C1q; visual cortex, Plx3397 50 days) of the same compound?
Answer: The C1q was 22040955±1586416 au.

Question: What about the “IBA1+ positive microglia” value (IBA1+ microglia; 5×FAD mice, CA1 region of the hippocampus) of the same compound?
Answer: Its value is “significant reduction”.

Question: And the “IBA1+ cells” value (IBA1+ microglia; 5×FAD mice, hippocampus, chronic Plx3397 vs control)?
Answer: The value was “reduced”.

Question: And the “IBA1+ positive microglia” value (IBA1+ microglia; 5×FAD mice, visual cortex, Plx3397 chow 600 ppm 20 days, then 30 days continued with or without daily GENUS, vs untreated)?
Answer: Its value is “significant reduction”.

Question: What about the “% area covered by IBA1” value (IBA1+ microglia; [1]) of the same compound?
Answer: Its value is 7.27±0.45%.

Question: And the “IBA1+ microglia number” value (IBA1+ microglia; [1])?
Answer: Its value is 47.18±5.44 % no treatment control.

Question: What about the “IBA1+ cells” value (IBA1+ microglia; 5×FAD mice, visual cortex, Plx3397 diet 600 ppm for 50 days) of the same compound?
Answer: The value was 12±1.91 cells.

Question: And the volume of microglia (IBA1+ microglia; CK-p25 mice, visual cortex, 42 days)?
Answer: Its volume of microglia is “lower volume”.

Question: And the microglia (IBA1+ microglia; CK-p25 mice, visual cortex, 42 days of treatment)?
Answer: The microglia was “reduced”.

Question: What about the “IBA1+ microglial cells” value (IBA1+ microglia; CK-p25 mice, visual cortex, chronic treatment 6 weeks) of the same compound?
Answer: The value was 44.19±2.86 % no treatment control.

Question: And the “GFAP+ astrocytes” value (GFAP+ astrocytes)?
Answer: Its value is “no difference”.
